Values quoted from earlier work as cited in patent US20260334526A1 (NICOVENTURES TRADING LIMITED, priority 2022, published 2026).

What was measured:
[1] = for solubility: fats, alcohols, water
[2] = nicotine solution at pH=6 relative to pH 8.1; perfusion cell; Adrian et al.

**Q.** For CC(/C=C/C=C(C)/C=C/C(=O)O)=C\C=C\C=C(C)\C=C\C=C(C)\C=C\C(=O)O (stereo in doubt) [norbixin, (2E,4E,6E,8E,10E,12E,14E,16E,18E)-4,8,13,17-tetramethylicosa-2,4,6,8,10,12,14,16,18-nonaenedioic acid], which solubility [1] is on record?
**A.** water-soluble

**Q.** Which solubility [1] does the source give for COC(=O)/C=C/C(C)=C\C=C\C(C)=C\C=C\C=C(C)\C=C\C=C(C)\C=C\C(=O)O [bixin, (2E,4E,6E,8E,10E,12E,14E,16Z,18E)-20-methoxy-4,8,13,17-tetramethyl-20-oxoicosa-2,4,6,8,10,12,14,16,18-nonaenoic acid] here?
**A.** soluble in fats and alcohols but insoluble in water

**Q.** And the chemical stability ([1]; when isolated)?
**A.** chemically unstable when isolated

**Q.** For CN1CCCC1c1cccnc1 (stereo not shown) [nicotine], which “reduction of diffusion rate across human buccal tissue (factor)” value [2] is on record?
**A.** ~ 7
